Assay results as given in patent US12215098B2 (priority 2018, dated 2025).
“Also recorded” adds a separate entry of the source.

Assays:
[1] = Hygroscopicity study by dynamic vapor sorption (DVS); format: physicochemical; conditions: 25° C. and 80% RH
Method: Dynamic Vapor Sorption (DVS) Method Used in the Present Disclosure
Instrument model: SMS DVS Advantage dynamic vapor sorption apparatus
Test condition: The sample (10 to 15 mg) was placed in a DVS sample pan for testing.
The detailed DVS parameters were as follows:
Equilibration: dm/dt=0.01%/min (The shortest time: 10 min, and the longest time: 180 min)
Drying: Dried for 120 min at 0% RH
RH (%) test gradient: 10%
Range of RH (%) test gradient: 0%-90%-0%
The classification of hygroscopicity evaluation was as follows:
SMS DVS Advantage dynamic vapor sorption apparatus

[2] = Solid stability test (high temperature, high humidity, strong light; XRPD); format: physicochemical
Source text: For the samples placed under high temperature and high humidity conditions, the vial opening was sealed with aluminum foil paper and small holes were punched in the aluminum foil paper to ensure that the sample can fully contact the ambient air. For the samples placed under strong light condition, the vial opening was sealed with aluminum foil paper. The samples placed under various conditions were sampled and tested for XRPD on the 5th day and 10th day, and the test results were compared with the initial test results on day 0.

[3] = tested on: NASH model (high-fat diet feeding and CCl4 induction); experiment: In vivo efficacy assay, high-fat diet and CCl4 induced NASH model; design: species or system mice
Method: The model building in this assay included two steps: high-fat diet feeding and CCl4 induction. Firstly, the mice were fed with high-fat diet to induce non-alcoholic fatty liver. The mice with a body weight of >35 g were selected and continued to be fed with high-fat diet while being administered with 25% CCl4 ([…]) by intraperitoneal injection twice a week for four weeks.
The day when the administration of CCl4 was started was set as day 0, and the time when the administration of CCl4 was started was set as hour 0. On the day when the administration of CCl4 was started, the administration was started by intragastric gavage. […] The time point of the injection of CCl4 should be 4 hours or longer apart from the time point of the first administration of the day.
The healthy control group consisted of 6 normal mice, which were fed with ordinary diet during the assay, without CCl4 injection.
48 obese mice were used in the model group and the administration group. Each group consisted of 8 mice. After grouping, the mice were injected intraperitoneally with CCl4 and administered with different doses of drugs or vehicle, respectively.
The analysis software Graphpad Prism6 was used for comparation between two groups.
For the analysis of hepatic pathology in animal models of non-alcoholic steatohepatitis, the therapeutic effect of the compound on NAFLD was comprehensively evaluated in three aspects of hepatocyte steatosis, hepatocyte ballooming degeneration, and inflammation accumulation in hepatic lobule with the reference of clinicopathological diagnosis and evaluation criteria for NAFLD, and using NAFLD activity score (NAS).
All slices stained with Sirius red were wholly scanned by a Digital pathoscope 4S slide scanner. 2 fields of view were randomly selected under a 5× field of view, and 2 fields of view covered 85% of the liver tissue area. Image pro-plus 6.0 software was then used for quantitative analysis, and fibrosis deposition area in the slice was calculated.

[4] = target: Glutathione-S-transferase-labeled FXR human protein (Homo sapiens (Human), UniProt Q96RI1); experiment: FXR biochemical assay (alphascreen); conditions: FXR with biotin-labeled steroid receptor coactivator, read-out: EC50 (nM) Mean ± SEM, activation effect on FXR
Method: 1. […] The reference compound was prepared as a 400 μM DMSO solution, and then diluted 1.5-fold to 10 concentration points. […] 2. […] 3. […] 4. […] 5. […] 6.

[5] = 15 mg/kg, intragastric gavage once a day, 28 days, Mean±SEM
[6] = 7.5 mg/kg, intragastric gavage once a day, 28 days, Mean±SEM

Glutathione-S-transferase-labeled FXR human protein, sequence (Q96RI1 whole entry): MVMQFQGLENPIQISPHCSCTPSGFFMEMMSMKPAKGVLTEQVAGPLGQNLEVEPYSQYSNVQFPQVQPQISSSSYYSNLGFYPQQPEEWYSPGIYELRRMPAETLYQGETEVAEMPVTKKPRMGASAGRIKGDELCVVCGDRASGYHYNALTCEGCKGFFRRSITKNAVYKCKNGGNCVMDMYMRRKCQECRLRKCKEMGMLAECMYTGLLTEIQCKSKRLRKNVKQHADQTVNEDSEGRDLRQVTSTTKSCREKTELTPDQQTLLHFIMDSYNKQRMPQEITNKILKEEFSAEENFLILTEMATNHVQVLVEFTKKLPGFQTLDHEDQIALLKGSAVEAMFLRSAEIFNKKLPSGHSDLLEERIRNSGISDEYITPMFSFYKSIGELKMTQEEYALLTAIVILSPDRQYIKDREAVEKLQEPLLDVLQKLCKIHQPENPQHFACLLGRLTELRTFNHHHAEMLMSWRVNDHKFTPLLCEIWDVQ

| Classification of hygroscopicity [1] | ΔW, weight increase by moisture absorption [1] | Crystal form (XRPD) ([2]; Day 0, initial) | Crystal form (XRPD) ([2]; High humidity (room temperature/relative humidity at 92.5%, open), Day 5) | Crystal form (XRPD) ([2]; High humidity (room temperature/relative humidity at 92.5%, open), Day 10) | Crystal form (XRPD) ([2]; High temperature (60° C., open), Day 5) | Crystal form (XRPD) ([2]; High temperature (60° C., open), Day 10) | Crystal form (XRPD) ([2]; Strong light (5000 lx, sealed), Day 5) | Crystal form (XRPD) ([2]; Strong light (5000 lx, sealed), Day 10) | Solid stability (in words) ([2]; high temperature, high humidity and strong light) | SMILES | Hepatocyte ballooming degeneration score [3, 5] | NAS score [3, 5] | NAS score ([3]; 15 mg/kg, intragastric gavage once a day, 28 days, Mean±SEM, listed as PX104) | EC50 [4] | Hepatic fibrosis (fibrosis deposition area, Sirius red) [3, 6] | Hepatocyte ballooming degeneration score [3, 6] | Hepatic steatosis score [3, 5] | Hepatocyte ballooming degeneration score ([3]; 45 mg/kg, intragastric gavage once a day, 28 days, Mean±SEM, one mouse 0.17 determined as abnormal value) | Hepatic function and hepatic damage (in words) ([3]; conclusion of the assay) |
| --- | --- | --- | --- | --- | --- | --- | --- | --- | --- | --- | --- | --- | --- | --- | --- | --- | --- | --- | --- |
| slightly hygroscopic | 0.5834% | Crystal form A | Crystal form A | Crystal form A | Crystal form A | Crystal form A | Crystal form A | Crystal form A | good stability; also recorded: stable | O=C(O)c1cnc(N2C(=O)CCc3cc(OCc4c(-c5c(Cl)cccc5Cl)noc4C4CC4)ccc32)c(Cl)c1 | – | – | – | – | – | – | – | – | – |
| – | – | – | – | – | – | – | – | – | – | O=C(O)c1ccnc(N2CC(O)(c3ccc(OCc4c(-c5c(Cl)cccc5Cl)noc4C4CC4)cc3Cl)C2)c1 [PX-104, reference compound] | 0.0 | 1.479 | significantly reduce the NAS score | 65.2 nM | – | – | – | – | – |
| – | – | – | – | – | – | – | – | – | – | O=C(O)c1cnc(N2C(=O)CCc3cc(OCc4c(-c5c(Cl)cccc5Cl)noc4C4CC4)ccc32)c(Cl)c1 [compound of formula (I)] | 0.0 | – | – | – | 2.580 | 0.0 | 0.854 | 0.021^@ ± | significantly improve hepatic function and reduce hepatic damage |
